In brackets after ≈: the same amount, converted by molar mass. Entries after “also recorded” stand apart in the source; their conditions may differ.
Assays:
[1] = system: Aspergillus fumigatus TIMM1776; test: Minimal inhibitory concentration, liquid medium dilution method; type: cell-based
Procedure: (§1) The antifungal spectra of the above TKR2648 against various microorganisms were determined. Using the liquid medium dilution method, the concentration causing a substantially complete inhibition of fungal growth was determined as minimal inhibitory concentration (μg/ml). In the table, YNBG stands for a medium comprising 0.67% of yeast nitrogen base (manufactured by Difco) and 1.0% of glucose, and BHI stands for a medium comprising 0.5% of brain-heart infusion bouillon (manufactured by Nihon Pharmaceutical).

[2] = system: Candida albicans TIMM0136; test: as above; type: cell-based
Procedure: as §1

Candida kefyr TIMM0301 = test: as above; type: cell-based
Procedure: as §1

[3] = system: Cryptococcus neoformans TIMM0354; test: as above; type: cell-based
Procedure: as §1

EL-4 lymphoma cells [4] = test: Cytotoxicity to EL-4 lymphoma cells, alamarblue-method; type: cell-based
Procedure: (§2) Effect of the above TKR2648 on tumor cells was examined by measuring inhibitory activity of the metastatic ability of tumor cells, which were inoculated into animals after incubation with TKR2648 for several hours. EL-4 lymphoma or B16 melanoma cells were cultured in RPMI 1640 medium containing 10% of fetal calf serum, and various concentrations of TKR2648 were added to the culture of tumor cells. After overnight culture, cytotoxicity of TKR2648 to the cells was determined by alamarblue-method (Biosource International), and the cells treated with TKR2648 were recovered and injected to C57BL/6 (female) mice via tail vein. Ten days after the injection of EL-4, the mice were sacrified and their livers were obtained and weighed to determine metastasizing tumor cells as increase of weight. Fourteen days after the injection of B16 cells, the mice were scarified and their lungs were obtained and counted metastasizing melanoma colonies. […] This means that TKR2648 may be useful as an anticancer agent by inhibiting metastasis properties of tumor cells without affecting of proliferative properties of tumor cells.

B16 melanoma cells [5] = test: Cytotoxicity to B16 melanoma cells, alamarblue-method; type: cell-based
Procedure: as §2

EL-4 lymphoma cells [6] = test: Inhibition of metastasis of treated EL-4 cells injected into mice (liver weight); type: in vivo, C57BL/6 (female) mice; conditions: for Inhibition of metastasis / Increase of liver weight mean ± SD: ten days after injection; for Increase of liver weight mean ± SD: * p<0.001
Procedure: as §2

B16 melanoma cells [7] = test: Inhibition of metastasis of treated B16 cells injected into mice (lung colonies); type: in vivo, C57BL/6 (female) mice; conditions: for Inhibition of metastasis / Colony number of melanoma mean ± SD: fourteen days after injection; for Colony number of melanoma mean ± SD: lungs
Procedure: as §2

ICR mice = test: Toxicity, intraperitoneal administration to mice; type: in vivo; conditions: 50 mg/kg
Solubility = type: physicochemical
[8] = in words, at concentrations inhibiting metastasis
[9] = EL4 cells treated at 0.156 μg/ml
[10] = EL4 cells treated at 0.313 μg/ml
[11] = EL4 cells treated at 0.625 μg/ml
[12] = in words, at the concentrations showing little cytotoxicity
[13] = B16 cells treated at 0.156 μg/ml
[14] = B16 cells treated at 0.625 μg/ml

Q: With `CCCCC(=O)OC1CC(OC)=CC(=O)O1` (centres unmarked) [TKR2648] as the compound, how does the MIC ([1]; Aspergillus fumigatus, TIMM1776, BHI medium) read?
A: 6.25 µg/mL (≈ 27.4 µM)

Q: And the Antifungal activity ([1]; in words)?
A: active

Q: What about the MIC ([2]; Candida albicans, TIMM0136, YNBG medium) of the same compound?
A: 100 µg/mL (≈ 438 µM)

Q: What about the Antifungal activity ([2]; in words) of the same compound?
A: active

Q: What about the MIC (Candida kefyr TIMM0301; Kluyveromyces marxianus, TIMM0301, YNBG medium) of the same compound?
A: 50 µg/mL (≈ 219 µM)

Q: What about the Antifungal activity (Candida kefyr TIMM0301; in words) of the same compound?
A: active

Q: And the MIC ([3]; Cryptococcus neoformans, TIMM0354, YNBG medium)?
A: 3.13 µg/mL (≈ 13.7 µM)

Q: And the Antifungal activity ([3]; in words)?
A: active

Q: What about the cytotoxicity at 0.156 µg/mL (EL-4 lymphoma cells [4]; Mus musculus, EL4, 0.156 μg/ml, overnight culture) of the same compound?
A: 4.5%

Q: What about the cytotoxicity at 0.313 µg/mL (EL-4 lymphoma cells [4]; Mus musculus, EL4, 0.313 μg/ml, overnight culture) of the same compound?
A: 15.7%

Q: What about the cytotoxicity at 0.625 µg/mL (EL-4 lymphoma cells [4]; Mus musculus, EL4, 0.625 μg/ml, overnight culture) of the same compound?
A: 35.1%

Q: What about the Cytotoxicity (EL-4 lymphoma cells [4]; [8]) of the same compound?
A: little cytotoxicity

Q: And the cytotoxicity at 0.156 µg/mL (B16 melanoma cells [5]; Mus musculus, B16, 0.156 μg/ml, overnight culture)?
A: 4.5%

Q: And the cytotoxicity at 0.625 µg/mL (B16 melanoma cells [5]; Mus musculus, B16, 0.625 μg/ml, overnight culture)?
A: 14.1%

Q: What about the cytotoxicity at 2.5 µg/mL (B16 melanoma cells [5]; Mus musculus, B16, 2.5 μg/ml, overnight culture) of the same compound?
A: 51.3%

Q: What about the Cytotoxicity (B16 melanoma cells [5]; [8]) of the same compound?
A: little cytotoxicity

Q: And the Inhibition of metastasis (EL-4 lymphoma cells [6]; [9])?
A: 47.4%

Q: And the “Increase of liver weight mean ± SD” value (EL-4 lymphoma cells [6]; [9])?
A: 0.630 ± 0.107 g

Q: And the Inhibition of metastasis (EL-4 lymphoma cells [6]; [10])?
A: 67.4%

Q: What about the “Increase of liver weight mean ± SD” value (EL-4 lymphoma cells [6]; [10]) of the same compound?
A: 0.391 ± 0.148 g

Q: What about the Inhibition of metastasis (EL-4 lymphoma cells [6]; [11]) of the same compound?
A: 89.3%

Q: What about the “Increase of liver weight mean ± SD” value (EL-4 lymphoma cells [6]; [11]) of the same compound?
A: 0.128 ± 0.043 g

Q: And the “Metastasis of EL-4 tumor cells to normal tissues” value (EL-4 lymphoma cells [6]; [12])?
A: inhibited metastasis

Q: What about the Inhibition of metastasis (B16 melanoma cells [7]; [13]) of the same compound?
A: 9.6%

Q: And the “Colony number of melanoma mean ± SD” value (B16 melanoma cells [7]; [13])?
A: 58.3 ± 16.3

Q: And the Inhibition of metastasis (B16 melanoma cells [7]; [14])?
A: 29.7%

Q: And the “Colony number of melanoma mean ± SD” value (B16 melanoma cells [7]; [14])?
A: 45.3 ± 3.8

Q: And the Inhibition of metastasis (B16 melanoma cells [7]; B16 cells treated at 2.5 μg/ml)?
A: 96.4%

Q: What about the “Colony number of melanoma mean ± SD” value (B16 melanoma cells [7]; B16 cells treated at 2.5 μg/ml, * p<0.001) of the same compound?
A: 2.3 ± 2.3

Q: What about the “Metastasis of B16 tumor cells to normal tissues” value (B16 melanoma cells [7]; [12]) of the same compound?
A: inhibited metastasis

Q: And the Toxic signs (ICR mice)?
A: no toxic signs

Q: And the Solubility (Solubility; in chloroform)?
A: Soluble

Q: What about the Solubility (Solubility; in hexane) of the same compound?
A: practically insoluble; also recorded: sparingly soluble

Q: And the Solubility (Solubility; in methanol)?
A: Soluble

Q: And the Solubility (Solubility; in water)?
A: practically insoluble; also recorded: sparingly soluble
